Read-outs that look alike come from different tables or passages of the source.
Target: T1, Src kinase (Homo sapiens, UniProt P12931)
T1 construct: purchased Upstate Bioteolnology (sic; Upstate Biotechnology); later HMR stock 27597-019E1 #14-117
Experiment: Phosphorylation assay of Src kinase inhibitors (radiometric, 96 well filter plate)
Assay type: biochemical
Details: tested in the range of 400-0.098 µM, 10 µM peptide substrate (FIYGAFKKKKNH2), 5 µM unlabeled ATP, room temperature 30 min
Protocol: The present invention provides novel compounds of Formulae I through XVIII discussed above. The following compounds which fall within Formulae I through XVIII are characterized by structure, IUPAC name and activity using phosphorylation assay for protein tyrosine Src kinase.
Phosphorylation Assay of Src Kinase Inhibitors
The activity of Src kinase was measured in a 96 well plate phosphorylation assay where the transfer of gamma phosphate from ATP to peptide substrate was measured radiometrically. […] Ki values were determined experimentally for some of the inhibitors. The phosphocellulose filter plates (Millipore catalog #MAPH NOB) were prewet prior to the phosphorylation assay by addition of 100 1 per well of 30 mM MES buffer+0.4 mg/ml BSA. After a 20-minute incubation, the buffer was removed completely via a Millipore vacuum manifold. The phosphorylation assay was then set up in the filter plates in a total volume per well of 60 1. The 60 1 consisted of compound (see concentration ranges above), a 1:100 dilution of Src kinase (originally Upstate Bioteolnology, #14-117; later HMR stock 27597-019E1) or assay buffer alone (for no enzyme control wells), 10 M peptide substrate (FIYGAFKKKKNH2), 5 M unlabeled ATP and a 1:500 dilution of P-ATP (New England Nuclear, catalog #NEG-602H, 2000 Ci/mmol). The reaction was mixed and incubated at room temperature for 30 min. The kinase reactions were stopped by addition of 150 mM H3PO4 and incubated for 10 minutes. The filter plate wells were filtered and washed seven times with 200 1 per well of 150 mM H3PO4. Finally, the filter plate was placed into a Packard plate adapter (Packard catalog #600517B), 35 1 of Microscint-20 (Packard catalog #6013621) was added to each well, the plate was sealed (TopSeal A sealers; Packard catalog #6005185) and counted on a Packard TopCount.

T1 sequence (P12931 whole entry): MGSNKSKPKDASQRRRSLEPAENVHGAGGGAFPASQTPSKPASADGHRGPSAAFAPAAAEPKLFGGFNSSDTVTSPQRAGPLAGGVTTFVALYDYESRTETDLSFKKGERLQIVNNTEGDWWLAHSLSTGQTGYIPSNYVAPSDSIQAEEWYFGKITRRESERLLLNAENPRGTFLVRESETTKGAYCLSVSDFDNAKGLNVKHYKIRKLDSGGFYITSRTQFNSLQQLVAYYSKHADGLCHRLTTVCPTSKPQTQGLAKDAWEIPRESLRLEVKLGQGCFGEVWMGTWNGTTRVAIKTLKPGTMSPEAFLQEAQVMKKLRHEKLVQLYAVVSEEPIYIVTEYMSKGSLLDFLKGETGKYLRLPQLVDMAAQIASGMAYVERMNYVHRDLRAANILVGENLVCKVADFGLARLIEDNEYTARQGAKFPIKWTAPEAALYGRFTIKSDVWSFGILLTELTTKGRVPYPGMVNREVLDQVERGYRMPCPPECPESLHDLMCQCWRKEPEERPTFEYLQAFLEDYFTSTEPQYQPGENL

SMILES | IC50 (duplicates, read-out: IC50) [µM] | IC50 (IC50, duplicates) [µM]
CNC(=O)[C@@H](Cc1cccc(C(=O)OC)c1)C(=O)NCCCCOc1cc2ccccc2cc1C(=O)NCC(N)=O [Example 148, 3-[[4-[N-[1-OXO-2-(N-METHYLAMINO- CARBONYL)-3-[(3-(METHOXY- CARBONYL)PHENYL]]PROPYL]- AMINO]BUTOXY]-NAPHTHALENE-2- (N-ACETAMIDO)CARBOXAMIDE] | 203 | 
NCCCCOc1cc2ccccc2cc1C(=O)NCC(N)=O [Example 26, 3-(4-AMINOBUTOXY)-NAPHTHALENE- 2-[N-ACETAMIDO]CARBOXAMIDE] | 25 | 
NC(=O)CNC(=O)c1cc2ccccc2cc1OCCCCNC(=O)[C@@H](N)Cc1csc2ccccc12 [Example 44, 3-[[4-[[2(S)-AMINO-3(BENZOTHIOPHEN- 3-YL)-1-OXO]PROPYL]AMINO]- BUTOXY]-NAPHTHALENE-2- (N-ACETAMIDO)CARBOXAMIDE] | 0.23 | 
NC(=O)CNC(=O)[C@@H](Cc1cccc2ccccc12)NCCCCCNC(=O)[C@H](N)Cc1csc2ccccc12 [Example 82, N-[((R)NAPHTH-1-YL)[(AMINO)- (CARBONYL)(METHYL)(AMINO)- (CARBONYL)]METHYL]-5-[N-[[N-[1- OXO-2-AMINO-3-(R)(BENZOTHIOPHEN- 3-YL)]PROPYL]AMINO]PENTYLAMINE] | 6 | 
N[C@@H](Cc1ccc(O)cc1)C(=O)NCCCCOc1cc2ccccc2cc1C(=O)NCC(=O)NCCCO [Example 99, 3-[[4-[[1-OXO-2(S)-AMINO-3-(4- HYDROXYPHENYL)]PROPYL]AMINO]- BUTOXY]NAPHTHALENE-2-[N-[[[[3- HYDROXYPROPYL]AMINO]- CARBONYL]METHYL]]CARBOXAMIDE] | 0.49 | 
NC(=O)CNC(=O)c1cc2ccccc2cc1OCCCCNC(=O)[C@H](N)CSCc1ccccc1 [Example 63, 3-[4-[[[1-OXO-2(S)-AMINO- 3(BENZYLMERCAPTO)]PROPYL]- AMINO]BUTOXY]-NAPHTHALENE-2- (N-ACETAMIDO)CARBOXAMIDE] | 2.23 | 
NC(=O)CNC(=O)c1cc2ccccc2cc1OCc1cccc(NC(=O)[C@@H](N)Cc2ccc(O)cc2)c1 [Example 96, 3-[3-[[[1-OXO-2(S)-AMINO-3-(4- HYDROXYPHENYL)]PROPYL]AMINO]- BENZYLOXY]NAPHTHALENE-2-(N- ACETAMIDO)CARBOXAMIDE] | 7.1 | 
N[C@@H](Cc1ccc(O)cc1)C(=O)NCCCCOc1c(O)cc(C(=O)NCC(=O)CCCO)cc1O [Example 3, ALPHA(S)-AMINO-N-[4-[2,6-DI- HYDROXY-4-[[(5-HYDROXY-2-OXO- PENTYL)AMINO]CARBONYL]- PHENOXY] BUTYL]-4- HYDROXYBENZENEPROPANAMIDE] | ≥ 500 | 
NC(=O)CNC(=O)c1cc2ccccc2cc1NC(=O)CCCNC(=O)[C@@H](N)Cc1ccc(O)cc1 [Example 34, 3-[[[[[[2(S)-AMINO-3-(4-HYDROXY- PHENYL)-1-OXO]PROPYL]AMINO]- PROPYL]CARBONYL] AMINO]- NAPHTHALENE-2-(N-ACETAMIDO)- CARBOXAMIDE] | 252 | 
NCC(=O)N[C@@H](Cc1ccc(O)cc1)C(=O)NCCCCOc1cc2ccccc2cc1C(=O)NCC(N)=O [Example 74, 3-[4-[[[(1-OXO-2-[(N-AMINOMETHYL- CARBONYL)(S)AMINO]3-(4-HYDROXY- PHENYL)]PROPYL]AMINO]BUTOXY]- NAPHTHALENE-2-(N-ACETAMIDO)- CARBOXAMIDE] | 25 | 
NC(=O)CNC(=O)c1cc2ccccc2cc1/N=C(/OCCCCNC(=O)C(N)Cc1ccc(O)cc1)C(F)(F)F (stereo not shown) [Example 127, 3-[[1-TRIFLUOROMETHYL][1-[4-[[[1- OXO-2-AMINO-3-HYDROXYPHENYL)]- PROPYL]AMINO]BUTOXY]]- METHYLENIMINO]-NAPHTHALENE-2- [N-ACETAMIDO]CARBOXAMIDE] | 19 | 
NC(=O)CNC(=O)c1cc2ccccc2cc1OCCNC(=O)[C@@H](N)Cc1ccc(O)cc1 [Example 92, 3-[2-[[[1-OXO-2(S)-AMINO-3-HYDROXY- PHENYL)]PROPYL]AMINO]ETHOXY]NAPHTHALENE-2-(N-] |  | 3.4
NC(=O)CNC(=O)c1cc2ccccc2cc1NC(=O)CCCCNC(=O)[C@@H](N)Cc1ccc(O)cc1 [Example 35, 3-[[[[[[2(S)-AMINO-3-(4-HYDROXY- PHENYL)-1-OXO]PROPYL]AMINO]- BUTYL]CARBONYL] AMINO]- NAPHTHALENE-2-(N- ACETAMIDO)CARBOXAMIDE] | 209 | 
NC(=O)CNC(=O)c1cc2ccccc2cc1OCCCNC(=O)[C@@H](N)Cc1ccc(O)cc1 [Example 93, 3-[5-[[[1-OXO-2(S)-AMINO-3-(4- HYDROXYPHENYL)]PROPYL]AMINO]- PROPYLOXY]NAPHTHALENE-2-(N- ACETAMIDO)CARBOXAMIDE] | 45 | 
NC(=O)CNC(=O)c1cc(-c2ccccc2)ccc1OCCCCNC(=O)C(N)Cc1ccc(O)cc1 (stereo in doubt) [Compound 144, (2S)-2-amino-N-(4-{2-[N-(carbamoylmethyl)carbamoyl]-4-phenylphenoxy}butyl)-3-(4-hydroxyphenyl)propanamide] | 30 | 
NC(=O)Cc1nc(-c2cc3ccccc3cc2OCCCCNC(=O)[C@@H](N)Cc2csc3ccccc23)no1 [Compound 156, (2S)-2-amino-3-benzo[b]thiophen-3-yl-N-(4-{3-[5-(carbamoylmethyl)(1,2,4-oxadiazol-3-yl)](2-naphthyloxy)}butyl)propanamide] | 20 | 
NC(=O)CNC(=O)c1cc2ccccc2cc1OCCCCNC(=O)CNCc1cccc2ccccc12 [Example 71] | 6 | 
NC(=O)CNC(=O)[C@@H](Cc1ccccc1)NCCCCCNC(=O)[C@H](N)Cc1csc2ccccc12 [Example 80, N-[((R)BENZYL)[(AMINO)(CARBONYL) (METHYL)(AMINO)(CARBONYL)]- METHYL]-5-[[N-[1-OXO-2- AMINO-3-(R)(BENZOTHIOPHEN-3-YL)]PROPYL]AMINO]PENTYLAMINE] | 6 | 
N=C(N)N[C@@H](Cc1ccc(O)cc1)C(=O)NCCCCOc1cc2ccccc2cc1C(=O)NCC(N)=O [Example 73, 3-[4-[[[(1-OXO-2-[(N-AMINOIMINO- METHYL)(S)AMINO]-3-(4-HYDROXY- PHENYL)]PROPYL]AMINO]BUTOXY]- NAPHTHALENE-2-(N-ACETAMIDO)- CARBOXAMIDE] | 6 | 
NC(=O)CNC(=O)c1cc2ccccc2cc1OCCCCNC(=O)[C@@H](N)CC1=CS(=O)(=O)c2ccccc21 [Compound 155, (2S)-2-amino-3-(1,1-dioxobenzo[b]thiophen-3-yl)-N-(4-{3-[N-(carbamoylmethyl)carbamoyl](2-naphthyloxy)}butyl)propanamide] | 5 | 
NC(=O)CNC(=O)c1cc2ccccc2cc1OCCCCNC(=O)[C@@H](N)Cc1cccc2ccccc12 [Example 57, 3-[4-[[[2(S)-AMINO-3-(NAPHTH-1-YL)-1- OXO]PROPYL]AMINO]BUTOXY]- NAPHTHALENE-2-(N-ACETAMIDO)- CARBOXAMIDE] | 0.37 | 
C[C@@H](c1ccc(O)cc1)[C@H](N)C(=O)NCCCCOc1cc2ccccc2cc1C(=O)NCC(N)=O [Example 79, 3-[4-[[[(1-OXO-2(S)-AMINO-3(R)- METHYL-3-(4-HYDROXYPHENYL)]- PROPYL]AMINO]BUTOXY]- NAPHTHALENE-2-(N-ACETAMIDO)- CARBOXAMIDE] | 6 | 
NC(=O)CNC(=O)c1cc2ccccc2cc1OCCCCNC(=O)[C@@H](N)Cc1ccc(F)cc1 [Example 41, 3-[[4-[[2(S)-AMINO-3-(4-FLUORO- PHENYL)-1-OXO]PROPYL]AMINO]- BUTOXY]-NAPHTHALENE-2- (N-ACETAMIDO)CARBOXAMIDE] | 0.31 | 
NC(=O)CNC(=O)c1cc2ccccc2cc1OCCCCNC(=O)[C@@H](N)Cc1cccnc1 [Example 48, 3-[[4-[[2(S)-AMINO-3-(PYRIDIN-3-YL)-1- OXO]PROPYL]AMINO]BUTOXY]- NAPHTHALENE-2-(N-ACETAMIDO)- CARBOXAMIDE] | 9.6 | 
NC(=O)CNC(=O)c1cc2ccccc2cc1OCCCCNC(=O)[C@@H](N)Cc1ccc([N+](=O)[O-])cc1 [Example 45, 3-[[4-[[2(S)-AMINO-3(4-NITROPHENYL)- 1-OXO]PROPYL]AMINO]BUTOXY]- NAPHTHALENE-2-(N-ACETAMIDO)- CARBOXAMIDE] | 1.47 | 
CC(NC(=O)c1cc2ccccc2cc1OCCCCNC(=O)[C@@H](N)Cc1ccc(O)cc1)C(N)=O (stereo partly drawn) [Example 9, 3-[4-[[2(S)-AMINO-3-(4-HYDROXY- PHENYL)-1-OXOPROPYL]AMINO]- BUTOXY]-NAPHTHALENE-2-N-[(1- AMIDO)ETHYL]CARBOXAMIDE] | 25 | 
NC(=O)C(Cc1ccccc1)NC(=O)c1cc2ccccc2cc1OCCCCNC(=O)[C@@H](N)Cc1ccc(O)cc1 (stereo partly drawn) [Example 10, 3-[4-[[2(S)-AMINO-3-(4-HYDROXY- PHENYL)-1-OXOPROPYL]AMINO]- BUTOXY]-NAPHTHALENE-2-[N- [(AMIDO)(BENZYL)METHYL]]- CARBOXAMIDE] | ≥ 500 | 
NC(=O)CNC(=O)c1cc2ccccc2cc1OCc1ccc(N)cc1 [Example 119, 2-[4-AMINOBENZYLOXY]- NAPHTHALENE-3-[N-ACETAMIDO]- CARBOXAMIDE] | 25 | 
